Columns and labels:
[1] = system: MCF-7; assay: MTT anti-proliferative assay, MCF-7; format: cell-based, human; details: Homo sapiens, MCF7
[2] = system: HepG-2; assay: MTT anti-proliferative assay, HepG-2; format: cell-based, human; details: Homo sapiens, HepG2
[3] = system: K-562; assay: MTT anti-proliferative assay, K-562; format: cell-based, human; details: Homo sapiens, K562
[4] = system: caspase-3; assay: Caspase-3 expression level in HepG-2 cells; format: cell-based, human; details: for Caspase-3 ± SE: HepG-2, at IC50 concentrations, control 0.460
Method: (§1) All synthesized compounds were tested at their cytotoxic concentrations in HepG-2 cells for analysis of gene expression levels of apoptotic markers caspase-3, caspase-9, TNF-α, and IL-6 proteins, and only two active compounds were tested for BAX and Bcl-2 proteins.
(§2) through Flow cytometric analysis.
(§3) Pellets were collected again and incubated with
(§4) Total RNA from vehicle-treated
(§5) (Thermo Scientific, USA).
(§6) All experiments were performed in […]

[5] = system: caspase-9; assay: Caspase-9 expression level in HepG-2 cells; format: cell-based, human; details: for Caspase-9 ± SE: HepG-2, at IC50 concentrations, control 11.01
Method: as §1, §2, §3, §4, §5, §6

[6] = system: TNF-alpha; assay: TNF-alpha level in HepG-2 cells; format: cell-based, human; details: control 43.48
Method: as §1, §2, §3, §4, §5, §6

[7] = system: IL-6R; assay: IL-6R level in HepG-2 cells; format: cell-based, human
Method: as §1, §2, §3, §4, §5, §6

[8] = molecular target: EGFR (Homo sapiens, UniProt P00533); assay: EGFR kinase inhibition assay (ELISA kit)
Chain of EGFR (P00533 25-1210): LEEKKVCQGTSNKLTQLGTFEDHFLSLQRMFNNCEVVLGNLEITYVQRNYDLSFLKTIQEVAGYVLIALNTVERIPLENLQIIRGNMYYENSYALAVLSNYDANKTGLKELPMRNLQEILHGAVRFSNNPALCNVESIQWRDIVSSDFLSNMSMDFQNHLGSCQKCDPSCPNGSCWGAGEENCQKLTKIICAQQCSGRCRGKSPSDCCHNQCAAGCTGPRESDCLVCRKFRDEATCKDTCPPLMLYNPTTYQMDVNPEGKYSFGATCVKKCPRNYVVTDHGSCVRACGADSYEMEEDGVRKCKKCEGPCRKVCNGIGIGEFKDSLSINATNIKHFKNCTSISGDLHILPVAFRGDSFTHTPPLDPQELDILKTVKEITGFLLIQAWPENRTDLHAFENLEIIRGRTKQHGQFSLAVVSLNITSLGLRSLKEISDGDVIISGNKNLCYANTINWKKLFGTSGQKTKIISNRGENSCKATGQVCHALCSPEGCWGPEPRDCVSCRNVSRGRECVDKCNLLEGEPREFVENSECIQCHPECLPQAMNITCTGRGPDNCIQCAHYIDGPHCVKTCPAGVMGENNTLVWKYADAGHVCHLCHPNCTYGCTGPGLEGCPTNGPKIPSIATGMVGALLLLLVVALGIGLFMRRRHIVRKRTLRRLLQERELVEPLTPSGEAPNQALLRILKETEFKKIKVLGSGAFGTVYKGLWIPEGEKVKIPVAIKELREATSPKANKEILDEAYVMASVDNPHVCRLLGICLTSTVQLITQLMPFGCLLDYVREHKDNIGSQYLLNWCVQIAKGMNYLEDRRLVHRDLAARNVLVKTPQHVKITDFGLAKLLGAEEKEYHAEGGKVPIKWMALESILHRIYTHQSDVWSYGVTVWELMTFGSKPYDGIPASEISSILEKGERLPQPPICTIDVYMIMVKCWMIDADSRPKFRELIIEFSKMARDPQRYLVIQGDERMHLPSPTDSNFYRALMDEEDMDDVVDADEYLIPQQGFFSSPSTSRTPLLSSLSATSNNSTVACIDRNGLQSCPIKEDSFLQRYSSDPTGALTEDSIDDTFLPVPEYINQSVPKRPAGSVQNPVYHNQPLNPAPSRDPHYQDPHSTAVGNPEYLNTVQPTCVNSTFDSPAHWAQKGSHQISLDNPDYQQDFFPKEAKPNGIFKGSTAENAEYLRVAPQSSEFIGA

[9] = molecular target: VEGFR-2 (Homo sapiens, UniProt P35968); assay: In vitro VEGFR-2 inhibitory assay (ELISA kit); details: VEGFR-2 kinase
Chain of VEGFR-2 (P35968 20-1356): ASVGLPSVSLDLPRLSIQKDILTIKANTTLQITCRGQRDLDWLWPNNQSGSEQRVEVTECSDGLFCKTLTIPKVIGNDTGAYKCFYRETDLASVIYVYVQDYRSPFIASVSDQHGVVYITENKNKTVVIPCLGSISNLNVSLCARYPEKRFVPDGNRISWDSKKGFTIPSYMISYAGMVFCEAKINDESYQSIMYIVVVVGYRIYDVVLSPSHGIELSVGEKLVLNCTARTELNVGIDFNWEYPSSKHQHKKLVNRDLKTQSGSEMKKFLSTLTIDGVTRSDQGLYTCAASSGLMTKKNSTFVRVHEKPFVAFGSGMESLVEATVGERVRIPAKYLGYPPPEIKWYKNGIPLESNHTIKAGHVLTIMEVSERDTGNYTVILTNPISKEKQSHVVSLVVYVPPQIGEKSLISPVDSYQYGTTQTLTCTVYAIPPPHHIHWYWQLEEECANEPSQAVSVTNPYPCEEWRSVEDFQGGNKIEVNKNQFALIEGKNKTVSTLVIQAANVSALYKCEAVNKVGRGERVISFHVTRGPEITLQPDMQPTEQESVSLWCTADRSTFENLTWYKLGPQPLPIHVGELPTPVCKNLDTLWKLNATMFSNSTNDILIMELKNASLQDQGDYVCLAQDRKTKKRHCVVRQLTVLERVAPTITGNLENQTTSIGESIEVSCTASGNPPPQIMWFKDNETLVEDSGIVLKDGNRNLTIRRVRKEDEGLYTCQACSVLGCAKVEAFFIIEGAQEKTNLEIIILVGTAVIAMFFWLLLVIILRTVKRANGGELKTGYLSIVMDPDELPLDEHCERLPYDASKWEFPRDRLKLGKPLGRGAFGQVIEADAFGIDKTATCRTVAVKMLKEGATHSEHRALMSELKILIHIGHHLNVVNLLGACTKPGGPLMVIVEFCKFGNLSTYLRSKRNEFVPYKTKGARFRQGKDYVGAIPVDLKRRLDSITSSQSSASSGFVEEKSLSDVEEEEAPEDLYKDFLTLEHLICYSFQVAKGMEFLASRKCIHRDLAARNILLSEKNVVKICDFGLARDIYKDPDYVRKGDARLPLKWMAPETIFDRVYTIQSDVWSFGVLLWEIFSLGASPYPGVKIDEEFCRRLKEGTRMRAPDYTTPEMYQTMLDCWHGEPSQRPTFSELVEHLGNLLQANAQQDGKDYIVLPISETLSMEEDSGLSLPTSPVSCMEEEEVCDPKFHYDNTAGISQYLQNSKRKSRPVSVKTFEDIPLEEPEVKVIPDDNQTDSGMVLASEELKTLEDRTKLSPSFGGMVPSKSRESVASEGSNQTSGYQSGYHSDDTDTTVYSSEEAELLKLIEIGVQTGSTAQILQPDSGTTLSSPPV

Q: What does the source list for `O=C(Cn1cnc2cc(Cl)ccc2c1=O)Nc1ccccc1Cl` [8b, 2-(7-Chloro-4-oxoquinazolin-3(4H)-yl)-N-(2-chlorophenyl)acetamide]?
A: viability at 0.195 µmol ([1]; MCF-7, 0.195 umol): 47.8%; cytotoxicity at 0.195 µmol ([1]; MCF-7, 0.195 umol, read-out: Toxicity %): 52.2%; viability at 0.391 µmol ([1]; MCF-7, 0.391 umol): 28.6%; cytotoxicity at 0.391 µmol ([1]; MCF-7, 0.391 umol, read-out: Toxicity %): 71.4%; viability at 0.781 µmol ([1]; MCF-7, 0.781 umol): 14.1%; cytotoxicity at 0.781 µmol ([1]; MCF-7, 0.781 umol, read-out: Toxicity %): 85.9%; viability at 1.563 µmol ([1]; MCF-7, 1.563 umol): 12%; cytotoxicity at 1.563 µmol ([1]; MCF-7, 1.563 umol, read-out: Toxicity %): 88%; viability at 3.125 µmol ([1]; MCF-7, 3.125 umol): 9.81%; cytotoxicity at 3.125 µmol ([1]; MCF-7, 3.125 umol, read-out: Toxicity %): 90.2%; viability at 6.25 µmol ([1]; MCF-7, 6.25 umol): 8.27%; cytotoxicity at 6.25 µmol ([1]; MCF-7, 6.25 umol, read-out: Toxicity %): 91.7%; viability at 12.5 µmol ([1]; MCF-7, 12.5 umol): 6.86%; cytotoxicity at 12.5 µmol ([1]; MCF-7, 12.5 umol, read-out: Toxicity %): 93.1%; viability at 25 µmol ([1]; MCF-7, 25 umol): 6.68%; cytotoxicity at 25 µmol ([1]; MCF-7, 25 umol, read-out: Toxicity %): 93.3%; IC50 ([1]; MTT, MCF-7, read-out: Cytotoxicity against cancer cells IC50 MCF-7): 191 ± 4 nM; viability at 0.195 µg/mL ([2]; HepG-2, 0.195 ug/ml): 52.9%; cytotoxicity at 0.195 µg/mL ([2]; HepG-2, 0.195 ug/ml, read-out: Toxicity %): 47.1%; viability at 0.391 µg/mL ([2]; HepG-2, 0.391 ug/ml): 33.3%; cytotoxicity at 0.391 µg/mL ([2]; HepG-2, 0.391 ug/ml, read-out: Toxicity %): 66.7%; viability at 0.781 µg/mL ([2]; HepG-2, 0.781 ug/ml): 27.5%; cytotoxicity at 0.781 µg/mL ([2]; HepG-2, 0.781 ug/ml, read-out: Toxicity %): 72.5%; viability at 1.563 µg/mL ([2]; HepG-2, 1.563 ug/ml): 13.7%; cytotoxicity at 1.563 µg/mL ([2]; HepG-2, 1.563 ug/ml, read-out: Toxicity %): 86.3%; viability at 3.125 µg/mL ([2]; HepG-2, 3.125 ug/ml): 9.67%; cytotoxicity at 3.125 µg/mL ([2]; HepG-2, 3.125 ug/ml, read-out: Toxicity %): 90.3%; viability at 6.25 µg/mL ([2]; HepG-2, 6.25 ug/ml): 8.39%; cytotoxicity at 6.25 µg/mL ([2]; HepG-2, 6.25 ug/ml, read-out: Toxicity %): 91.6%; viability at 12.5 µg/mL ([2]; HepG-2, 12.5 ug/ml): 7.03%; cytotoxicity at 12.5 µg/mL ([2]; HepG-2, 12.5 ug/ml, read-out: Toxicity %): 93%; viability at 25 µg/mL ([2]; HepG-2, 25 ug/ml): 5.68%; cytotoxicity at 25 µg/mL ([2]; HepG-2, 25 ug/ml, read-out: Toxicity %): 94.3%; IC50 ([2]; MTT, HepG-2, read-out: Cytotoxicity against cancer cells IC50 HepG-2): 224.2 ± 1.7 nM; viability at 0.195 µmol ([3]; K-562, 0.195 umol): 82.7%; cytotoxicity at 0.195 µmol ([3]; K-562, 0.195 umol, read-out: Toxicity %): 17.3%; viability at 0.391 µmol ([3]; K-562, 0.391 umol): 55.2%; cytotoxicity at 0.391 µmol ([3]; K-562, 0.391 umol, read-out: Toxicity %): 44.8%; viability at 0.781 µmol ([3]; K-562, 0.781 umol): 27.4%; cytotoxicity at 0.781 µmol ([3]; K-562, 0.781 umol, read-out: Toxicity %): 72.6%; viability at 1.563 µmol ([3]; K-562, 1.563 umol): 16.4%; cytotoxicity at 1.563 µmol ([3]; K-562, 1.563 umol, read-out: Toxicity %): 83.6%; viability at 3.125 µmol ([3]; K-562, 3.125 umol): 11.1%; cytotoxicity at 3.125 µmol ([3]; K-562, 3.125 umol, read-out: Toxicity %): 88.9%; viability at 6.25 µmol ([3]; K-562, 6.25 umol): 8.54%; cytotoxicity at 6.25 µmol ([3]; K-562, 6.25 umol, read-out: Toxicity %): 91.5%; viability at 12.5 µmol ([3]; K-562, 12.5 umol): 7.8%; cytotoxicity at 12.5 µmol ([3]; K-562, 12.5 umol, read-out: Toxicity %): 92.2%; viability at 25 µmol ([3]; K-562, 25 umol): 6.69%; cytotoxicity at 25 µmol ([3]; K-562, 25 umol, read-out: Toxicity %): 93.3%; IC50 ([3]; MTT, K-562, read-out: Cytotoxicity against cancer cells IC50 K-562): 464.2 ± 3 nM; Caspase-3 ± SE [4]: 1.10 ± 0.046 ng/mL; Caspase-3 ± SE ([4]; listed as R3): 1.10 ng/mL; caspase-3 expression level, fold increase ([4]; HepG-2, vs control cells): 2.40 fold; Caspase-9 ± SE [5]: 83.31 ± 1.28 ng/L; Caspase-9 ± SE ([5]; listed as R3): 83.31 ng/L; caspase-9 expression level, fold increase ([5]; HepG-2, vs control cells): 7.5 fold; TNF-alpha ±SE ([6]; HepG-2, at IC50 concentrations): 23.47 ± 0.56 ng/L; TNF-alpha ±SE ([6]; raw data, HepG2): 16.86 ng/L; IL-6R ± SE ([7]; HepG-2, at IC50 concentrations, control 44.10): 24.59 ± 0.95 ng/L; IL-6R protein level ([7]; HepG-2, control 44.10%): 24.59 ng/L; IL-6 ±SE ([7]; raw data, HepG2, control 44.10): 11.87 ng/L; Activity % ([8]; HepG2): 16.278%; Inhibition % ([8]; HepG2): 83.722%; Activity % ([8]; K-562): 17.305%; Inhibition % ([8]; K-562): 82.695%; Activity % ([8]; MCF7): 18.736%; Inhibition % ([8]; MCF7): 81.264%; Activity % ([9]; HepG2): 11.673%; Inhibition % ([9]; HepG2): 88.327%; Activity % ([9]; K-562): 21.332%; Inhibition % ([9]; K-562): 78.668%; Activity % ([9]; MCF7): 19.260%; Inhibition % ([9]; MCF7): 80.740%
